From patent US12109218B2, “Compositions of grapiprant and methods for using the same” (ARATANA THERAPEUTICS, INC., priority 2014, dated 2024)
Read-outs that look alike come from different tables or passages of the source.

Assay: Crossover PK of tablet vs methylcellulose suspension in beagle dogs (Example 15)
Type: in vivo, beagle dog
Settings: for Cmax / AUC(0-t) / Tmax: both sexes, dog, serum, po; for Cmax / AUC(0-t): beagle, both sexes combined; for AUC(0-t): read-out: average AUClast
Method: The objective of this study was to determine and compare the pharmacokinetic parameters of grapiprant in beagle dogs after single oral administration of a flavored tablet formulation and a methylcellulose suspension formulation at nominal doses of 6 mg/kg and 50 mg/kg. For this study, sixteen beagle dogs, […], were divided into two groups based on the nominal doses of grapiprant, either 6 mg/kg in Groups 3AB or 50 mg/kg in Groups 4A/B. Each group was given the appropriate oral dose in a tablet or in a methylcellulose formulation, using the crossover design as shown below at Table 19, on study Days 0 and 15. Blood samples were collected and serum was prepared, frozen, and analyzed for concentration of grapiprant.
The vehicle was 0.5% methylcellulose (400 centipoise) in water. About half a volume of distilled water was heated to about 40-50° C. Methylcellulose was weighed to give a final concentration of 0.5% (w/v), and dissolved in the heated distilled water with stirring. The flask with the methylcellulose solution was cooled immediately. The remaining distilled water was added into the flask to adjust volume. The final solution was stirred for least 30 minutes.
To prepare 1.2-mg/mL and 10-mg/mL suspensions grapiprant in the vehicle, an appropriate amount of grapiprant was added to a calibrated beaker containing 0.5% aqueous methylcellulose, and mixed using a vortex. The suspension was homogenized using a Polytron™ mixer with attached antifoam bit. A stir bar was added to the beaker, and the suspension was stirred for about 5 minutes. The stir bar was removed temporarily to adjust the volume, and the suspension was stirred for another 5 minutes before it was transferred to a labeled amber dosing container or glass beaker wrapped with foil.
The dosing suspension was prepared fresh on each day of dosing. A vortex depth of between 75% and 100% of the depth of the container containing the 500-mg suspension was achieved on both dosing days. […] Dose formulation samples were transported to the animal room before collection and were collected (while the formulations were being stirred) just before dosing the first animal of each group, and just before dosing the last animal of each group. These steps guard against the 500-mg suspension settling during transport from the formulation laboratory to the animal room.

[1] = 60 mg, beagle dogs, Day 0, 60-mg suspension
[2] = 60 mg, beagle dogs, Day 0, 60-mg tablet
[3] = 60 mg, beagle dogs, Day 15, 60-mg suspension
[4] = 60 mg, beagle dogs, Day 15, 60-mg tablet
[5] = 500 mg, beagle dogs, Day 0, 500-mg suspension
[6] = 500 mg, beagle dogs, Day 0, 500-mg tablet
[7] = 500 mg, beagle dogs, Day 15, 500-mg suspension
[8] = 500 mg, beagle dogs, Day 15, 500-mg tablet

CCc1nc2c(C)nc(C)cc2n1-c1ccc(CCNC(=O)NS(=O)(=O)c2ccc(C)cc2)cc1 [grapiprant, N-{2-[4-(2-ethyl-4,6-dimethyl-1H-imidazo[4,5-c]pyridin-1-yl)phenyl]ethyl}-N′-[(4-methylphenyl)sulfonyl]urea]
fecal abnormalities (beagle dogs, single oral 60 mg or 500 mg): Slight increases in the incidence of fecal abnormalities
relative bioavailability ratio (tablet/suspension) (both dose levels, both trials): greater than 100
Cmax [1]: 4050 ng/mL
AUC(0-t) [1]: 14.5 µg·h/mL
Cmax [2]: 5330 ng/mL
AUC(0-t) [2]: 19.6 µg·h/mL
Cmax [3]: 3810 ng/mL
AUC(0-t) [3]: 12.5 µg·h/mL
Cmax [4]: 6110 ng/mL
AUC(0-t) [4]: 17.4 µg·h/mL
Cmax [5]: 76800 ng/mL
AUC(0-t) [5]: 293 µg·h/mL
Cmax [6]: 96100 ng/mL
AUC(0-t) [6]: 455 µg·h/mL
Cmax [7]: 74200 ng/mL
AUC(0-t) [7]: 209 µg·h/mL
Cmax [8]: 101000 ng/mL
AUC(0-t) [8]: 430 µg·h/mL
Tmax (beagle dogs, Day 0, 60-mg methylcellulose suspension): 1 h
Tmax (beagle dogs, Day 15, 500-mg suspension): 1 h
